Test results as given in patent publication EP4541363A1, “USE OF THE (+)-ELATOL COMPOUND FOR TREATING OR PREVENTING A NAEGLERIA FOWLERI INFECTION” (Universidad de la Laguna, priority 2022, dated 2023).
In brackets after ≈: the same amount, converted by molar mass. Read-outs that look alike come from different tables or passages of the source.

Experiments:
[1] = Cytotoxicity assay based on alamarBlue reagent; type: cell-based; details: mouse, cytotoxic concentration 50 against murine macrophages J774A.1, 24 hours at 37°C, 5% CO2, mean ± standard deviation
Experimental: (§1) The cells were cultured in DMEM (Dulbecco's Modified Eagle's Medium) supplemented with 10% fetal bovine serum and 10 µg/ml gentamicin (Sigma-Aldrich, Madrid, Spain). The culture was maintained at 37°C in a 5% CO2 atmosphere. To assess cytotoxicity, an assay based on the alamarBlue® reagent was carried out. Briefly, the murine macrophages (2 × 10^5 cells/ml) were incubated with serial dilutions of the test compound that were performed in the same culture medium. Lastly, alamarBlue® was added to each well and kept at 37°C and 5% CO2 for 24 hours.

[2] = system: Naegleria fowleri ATCC® 30215™; test: In vitro activity against Naegleria fowleri, alamarBlue colorimetric assay, strain ATCC 30215; type: cell-based; details: for IC50: Naegleria fowleri, ATCC30215; for IC50 / ATCC® 30215™ IC50: Table 2, strain ATCC® 30215™, 48 hours at 37°C, mean ± standard deviation; for ATCC® 30215™ SI: selectivity index, CC50 in J774A.1 versus IC50 in strain ATCC® 30215™
Experimental: (§2) Two strains of Naegleria fowleri obtained from the American Type Culture Collection (ATCC® 30808™ and ATCC® 30215™) were used (LG Promochem, Barcelona, Spain). Both strains were grown in 2% (w/v) Bacto Casitone (Thermo Fisher Scientific, Madrid, Spain) supplemented with 10% (v/v) fetal bovine serum, 0.3 µg/ml penicillin G sodium salt and 0.5 mg/ml streptomycin sulphate (Sigma-Aldrich, Madrid, Spain) at 37°C.
(§3) All tested compounds were dissolved in dimethyl sulfoxide (DMSO). The in vitro activity of the selected compounds was assessed by a colorimetric assay based on the alamarBlue® reagent. Amoebas were seeded in 96-well plates at a concentration of 2 × 10^5 cells/ml ([…]). Next, serial dilutions (in the same medium as the amoebas) of the compound were prepared and added ([…]) to the wells containing the Naegleria fowleri cells. Lastly, 10% of the total volume of alamarBlue® was added to the wells and incubated under gentle stirring at 37°C for 48 hours. After that time, the emitted fluorescence was read on an EnSpire® Multimode Plate Reader (PerkinElmer, Spain) using a […] (Rizo-Liendo A. et al. "In Vitro Activity of Statins against Naegleria fowleri."; Pathog, vol. 8, no. 3, p. 122 - 2019; doi: 10.3390/ pathogens8030122).

[3] = system: Naegleria fowleri ATCC® 30808™; test: In vitro activity against Naegleria fowleri, alamarBlue colorimetric assay, strain ATCC 30808; type: cell-based; details: for IC50 / ATCC® 30808™ IC50: strain ATCC® 30808™, 48 hours at 37°C, mean ± standard deviation; for ATCC® 30808™ SI: selectivity index, CC50 in J774A.1 versus IC50 in strain ATCC® 30808™
Experimental: as §2, §3

[4] = system: murine macrophages J774A.1; test: Cytotoxicity assay based on alamarBlue reagent; type: cell-based; details: cytotoxic concentration 50 against murine macrophages J774A.1; 24 hours at 37°C, 5% CO2; mean ± standard deviation
Experimental: as §1

[5] = system: Naegleria fowleri; details: infected PAM patients; alone or in combination with other medicines; cited from earlier work
[6] = Naegleria fowleri, ATCC30808, Table 2, read-out: ATCC® 30808™ IC50

| Compound | ATCC® 30215™ SI [2] | ATCC® 30808™ SI [3] | IC50 ([3]; Table 1) [µg/mL] | also measured |
| --- | --- | --- | --- | --- |
| C=C1CC(O)C(Br)C(C)(C)C12CCC(C)=C(Cl)C2 (single isomer, unassigned; (+)) [(+)-elatol] | 54.03 | 57.02 | – | CC50 at 24 h ([1]; j774a.1 macrophages): 20.5 ± 4.33 µg/mL (≈ 61.5 µM); IC50 [2]: 0.38 ± 0.06 µg/mL (≈ 1.14 µM); IC50 ([3]; Naegleria fowleri, ATCC30808, Table 1, read-out: IC50): 0.36 ± 0.03 µg/mL (≈ 1.08 µM); IC50 [3, 6]: 0.36 ± 0.03 µg/mL (≈ 1.08 µM) |
| C=C1CC(O)C(Br)C(C)(C)C12CC=C(C)CC2 (single isomer, unassigned; (-)) [(-)-10-bromochamigra-3,7(14)-dien-9-ol] | – | – | > 25 | – |
| C=C1C[C@H](O)[C@H](Br)C(C)(C)C12CCC(C)(Cl)C(Br)C2 (single isomer, unassigned; (-)) [(-)-rogiolol] | – | 5.57 | 8.18 ± 0.92 (≈ 19.7 µM) | CC50 [4]: 45.56 ± 7.80 µg/mL (≈ 110 µM); ATCC® 30808™ IC50 ([3]; Table 2): 8.18 ± 0.92 µg/mL |
| C=C1C[C@H](O)CC(C)(C)[C@@]12CCC(C)=C(Cl)C2 [(+)-debromoelatol] | – | – | > 25 | – |
| C=C1CC[C@@H](Br)C(C)(C)[C@@]12CC[C@@](C)(Br)[C@H](Cl)C2 [(+)-obtusane] | – | – | > 25 | – |
| C=C1C[C@@H](O)[C@@H](Br)C(C)(C)[C@]12CC[C@](C)(Br)[C@@H](Cl)C2 [(+)-obtusol] | – | – | > 25 | – |
| C=C1C[C@@H](O)[C@@H](Br)C(C)(C)[C@]12CC[C@](C)(Cl)[C@@H](Br)C2 [(-)-cartilagineol] | – | – | > 25 | – |
| C=C1C[C@@H](O)[C@@H](Br)C(C)(C)[C@]12CC[C@@](C)(O)[C@@H](Cl)C2 [(-)-dendroidiol] | – | – | > 25 | – |
| C=C1C[C@H](O)[C@H](Br)C(C)(C)[C@@]12CCC(C)=C(Cl)C2 [(-)-elatol] | – | 4.39 | 12.27 ± 2.68 (≈ 36.8 µM) | CC50 [4]: 53.91 ± 4.28 µg/mL (≈ 162 µM); ATCC® 30808™ IC50 ([3]; Table 2): 12.27 ± 2.68 µg/mL |
| C[C@@H]1[C@H](O)[C@@H](C)/C=C/C=C/C=C/C=C/C=C/C=C/C=C/[C@H](O[C@@H]2O[C@H](C)[C@@H](O)[C@H](N)[C@@H]2O)C[C@@H]2O[C@](O)(C[C@@H](O)C[C@@H](O)[C@H](O)CC[C@@H](O)C[C@@H](O)CC(=O)O[C@H]1C)C[C@H](O)[C@H]2C(=O)O [Amphotericin B] | > 1333.33 | > 1818.18 | – | CC50 at 24 h ([1]; j774a.1 macrophages): > 200 µg/mL; IC50 [2]: 0.15 ± 0.02 µg/mL (≈ 0.162 µM); IC50 [3, 6]: 0.11 ± 0.03 µg/mL (≈ 0.119 µM); patients recover at least partially after its administration [5]: 8% |
| CCCCCCCCCCCCCCCCOP(=O)([O-])OCC[N+](C)(C)C [Miltefosine] | 1.56 | 3.30 | – | CC50 at 24 h [1]: 52.1 ± 3.61 µg/mL (≈ 128 µM); IC50 [2]: 33.2 ± 2.95 µg/mL (≈ 81.6 µM); IC50 [3, 6]: 15.8 ± 1.72 µg/mL (≈ 38.7 µM) |
| (-)-3,10-dibromo-4-chloro-alpha-chamigrene | – | – | > 25 | – |
| debromolauriterol | 1.07 | 2.74 | – | CC50 [4]: 15.17 ± 2.80 µg/mL; ATCC® 30215™ IC50 [2]: 14.13 ± 2.37 µg/mL; ATCC® 30808™ IC50 ([3]; Table 2): 5.54 ± 1.19 µg/mL |
| lauriterol | 6.85 | 5.97 | – | CC50 [4]: 23.65 ± 2.30 µg/mL; ATCC® 30215™ IC50 [2]: 3.45 ± 0.63 µg/mL; ATCC® 30808™ IC50 ([3]; Table 2): 3.96 ± 0.76 µg/mL |
